Experimental findings from patent US20040133938A1, “Use of lipoic acid in plant culture media” (priority 2002, published 2004) are described below.

The subject of this test is MicroTom cotyledon explants. The test is described as follows: Tissue browning severity on Agrobacterium-inoculated MicroTom cotyledon explants. In kind it is cell-based, Lycopersicon esculentum. Particulars: after 5 days on selection media. As to the method:
This example describes the use of lipoic acid in an Agrobacterium-based tomato transformation process. MicroTom (a cultivar of tomato species: Lycopersicon esculentum) seeds from Tomato Growers (Ball Seed Co., West Chicago, Ill. USA) were surface-sterilized by first soaking for 10 min in sterile deionized water, removing the water, and then adding enough 70% ethanol to immerse the seeds for 1 min while stirring vigorously and then aspirating the ethanol. The seeds were rinsed 2× with sterile deionized water and then soaked in 25% Chlorox with 1-2 drops of Tween 20 for 10 min while stirring frequently. The seeds were rinsed 3× with sterile deionized water. The seeds were germinated in phytatrays containing Davis Germination medium (4.3 g/L MS salts, 2 ml/L Gamborg's B-5 500× salts, 20 g/L sucrose and 10 g/L agar) (approximately 120 seeds/container), and the phytatrays were wrapped with aluminum foil. The phytatray cultures were maintained at 28° C. under the dark for 5 days. After 5 days, the phytatray cultures were unwrapped and grown at 24° C. under a 16 h photoperiod for about 44 h.
Cotyledon explants were isolated from seedlings 7 days after sowing seeds on Davis Germination medium. Cotyledon explants were prepared by bathing them in 6 mL of TXD liquid medium (4.3 g/L MS salts, 2 mL/L Gamborg's B-5 500× salts, 4 mg/L pCPA (p-chlorophenoxyactic acid), 0.005 mg/L kinetin, and 30 g/L sucrose) to prevent desiccation and trimming them at both ends using a #15 feather blade. Immediately after the trimming, the cotyledon explants were gently placed on “feeder plates” containing UC2PC medium (2.2 g/L MS salts, 2.2 mL/L, Gamborg's B-5 500× salts, 0.2 mg/L 2,4-D, 4 mg/L pCPA, 0.1 mg/L kinetin, 30 g/L sucrose, 0.2 g/L potassium phosphate, 10 g/L agar, 8 mL/L acetosyringone (4.91 mg/mL), and 4 mL galacturonic acid (53.05 mg/mL)). The “feeder plates” are made by overlaying 2 mL of tobacco suspension cells and a sterile Whatman filter on the plates containing UC2PC medium. The cotyledon explants were gently poked with a sharp forceps (ASIM5311, Stainless French, made in Switzerland). Usually six to ten pokes were made per explant depending the size of cotyledons. Right after poking, the cotyledons were inoculated with Agrobacterium containing pMON15715 (FIG. 1) by adding 3 mL of the adjusted Agrobacterium solution on top of the cotyledons. The plates were incubated for 10 min at room temperature, and the Agrobacterium solution was aspirated with a sterile pipette. The cotyledons were then co-cultured for 2 days at 23-24° C. under a 16-h photoperiod. The co-culture plates were placed in plastic bags to keep the humidity, which is preferable for MicroTom growth.
[…] Three to four weeks after the induction stage, the cotyledons formed buds or shoots. Cotyledons with buds or shoots were separated by individual event and transferred to, shoot elongation medium E2 (SI-2 medium without IAA), supplemented with 100 mg/L kanamycin for two to four weeks. All culture plates were placed in a culture box, placed inside a plastic bag, and cultured at 23-24° C. under a 16 h photoperiod.
Evaluation of plants after transformation with pMON15715 (FIG. 1) as described above was carried out in multiple ways. About five days after selection, tissue browning severity within and around the poked region on cotyledon explants was measured under a dissecting microscope. Low tissue browning severity was determined as less than 30% of the pokes made on each cotyledon explant that produced browning tissue and the high tissue browning severity was determined as more than 30% of the pokes made on each explant that generated browning tissue 5 days after culturing on selection medium. All the treatments of lipoic acid at concentrations of 5, 10, 50 and 100 μM had 1.5- to 1.8-fold increases of the percentage of explants scored as low tissue browning severity, respectively, compared to the treatment without lipoic acid (Table 1).

Structures are written as SMILES.

`O=C(O)CCCCC1CCSS1` (centres unmarked) [lipoic acid, 1,2-dithiolane-3-pentanoic acid]: the “% high browning” value is, setting by setting: (5 μM lipoic acid) 34.9%; (10 μM lipoic acid) 33.9%; (50 μM lipoic acid) 34.4%; (100 μM lipoic acid) 46%. In addition, the “% low browning” value runs as follows: (5 μM lipoic acid) 65.1%; (10 μM lipoic acid) 66.1%; (50 μM lipoic acid) 65.6%; (100 μM lipoic acid) 54%.
